Data as given in patent publication US6630473B1, “Anti-inflammatory agents and inhibitors against increase in ocular tension caused by irradiation with lasers, containing 1,4-dihydropyridine derivatives” (Senju Pharmaceutical Co., Ltd., priority 1999, dated 2003).
Several values for one entry are separate records, joined by “and”; a condition that tells them apart may be missing. Equal entries are not always repeated. Structures can show the parent of a compound that is named as a salt.

Tests used:
[1] = system: intraocular inflammation induced by photocoagulation of iris due to argon laser irradiation; experiment: Anterior chamber protein concentration (laser flare cell meter) after argon laser irradiation of iris; assay type: in vivo, Male Dutch colored house rabbits; conditions: for protein concentration after laser irradiation, Treated eye / protein concentration after laser irradiation, Non-treated eye: mean ± SE (n = 4); for protein concentration after laser irradiation: intravenous 500 μg/500 μl/kg at 30 minutes and immediately before laser irradiation, mean ± standard error (n = 4)
From the text: (§1) The effect of the inventive compound on intraocular inflammation and rise of intraocular pressure induced by photocoagulation of iris due to argon laser irradiation was examined. As regards intraocular inflammation, the anterior chamber protein concentration (photon/msec) was used as an index. Male Dutch colored house rabbits weighing about 2 kg purchased from Fukusaki Rabbit Breeding Cooperative were used for the test, after confirmation of absence of abnormality. The rabbits were raised at temperature of 23±3° C., humidity of 55±10% on a solid feed (the NOSAN GROUP: Labo R Stock, NIHON NOSAN) 100 g a day, allowing free access to tap water. […] The argon laser was irradiated in the middle of both eyes between limbus and the base of iris at 5 sites at the same intervals, under the conditions of size: 200 μm, irradiation time (duration): 0.5 sec, output (power): 0.35 W. To remove the effect of fibrin that occurs after laser irradiation, heparin (1000 U/kg) was intravenously administered. The increase in the anterior chamber protein concentration caused by ophthalmic inflammation was measured with a laser flare cell meter (Kowa Co., Ltd.) immediately before, 30 minutes after and 1 hour after laser irradiation. Nicardipine hydrochloride was intravenously administered at 30 minutes and immediately before laser irradiation by 500 μg/500 μl/kg. Heparin was administered 5 minutes after the first administration of nicardipine hydrochloride. Heparin was administered to the control group at 30 minutes before laser irradiation. Into one eye of the house rabbits was instilled 0.05% and 0.1% iganidipine hydrochloride and 0.1% nicardipine hydrochloride, and into each opposite eye was instilled physiological saline by 10 μl at 30 minutes before laser irradiation. The eye instilled with the test material was taken as the treated eye, and the opposite eye instilled with physiological saline was taken as the non-treated eye. In view of the influence of the test material on the opposite eye, the control eyes were prepared, wherein physiological saline was instilled into one eye, and the other eye was not treated, respectively taken as the control of the treated eye and the control of the non-treated eye. Heparin was intravenously administered immediately after instillation of the test material and physiological saline.

[2] = system: rise of intraocular pressure induced by photocoagulation of iris due to argon laser irradiation; experiment: Intraocular pressure (pneumatonograph) after argon laser irradiation of iris; assay type: in vivo, Male Dutch colored house rabbits
From the text: as §1, with “intraocular pressure of” for “increase in”, “both eyes” for “anterior chamber protein concentration caused by ophthalmic inflammation”, “measured” for “measured with a laser flare cell meter (Kowa Co., Ltd.)”, “before” for “before, 30 minutes after”, “0.25, 0.5, 1, 2, 3 and 4 hours” for “1 hour”

[3] = system: prostaglandin E2 (PGE2) induced inflammatory responses in the anterior uveal tissues and rise of intraocular pressure; conditions: systemic administration before administration of PGE2; cited from earlier work
[4] = system: experimental endophthalmitis induced by photocoagulation of iris by the argon laser; conditions: literature report; nicardipine by intravenous administration; cited from earlier work

SMILES: C=CCN1CCN(CC(C)(C)COC(=O)C2=C(C)NC(C)=C(C(=O)OC)C2c2cccc([N+](=O)[O-])c2)CC1.Cl.Cl (stereo not drawn) [iganidipine hydrochloride, 3-(4-allyl-1-piperazinyl)-2,2-dimethylpropyl methyl 2,6-dimethyl-4-(m-nitrophenyl)-1,4-dihydropyridine-3,5-dicarboxylate dihydrochloride]
- protein concentration after laser irradiation, Treated eye ([1]; instillation of 0.05% iganidipine hydrochloride 10 μl 30 minutes before laser, time 0 min): 20.55 ± 5.02 /msec
- protein concentration after laser irradiation, Treated eye ([1]; instillation of 0.05% iganidipine hydrochloride 10 μl 30 minutes before laser, time 30 min, dihydrochloride): 73.8 /msec and 73.75 ± 8.67 /msec
- protein concentration after laser irradiation, Treated eye ([1]; instillation of 0.05% iganidipine hydrochloride 10 μl 30 minutes before laser, time 60 min): 284.10 ± 17.03 /msec
- protein concentration after laser irradiation, Treated eye ([1]; instillation of 0.1% iganidipine hydrochloride 10 μl 30 minutes before laser, time 0 min): 19.18 ± 2.37 /msec
- protein concentration after laser irradiation, Treated eye ([1]; instillation of 0.1% iganidipine hydrochloride 10 μl 30 minutes before laser, time 30 min, dihydrochloride): 84.7 /msec and 84.70 ± 29.66 /msec
- protein concentration after laser irradiation, Treated eye ([1]; instillation of 0.1% iganidipine hydrochloride 10 μl 30 minutes before laser, time 60 min): 227.18 ± 10.03 /msec
- protein concentration after laser irradiation, Non-treated eye ([1]; opposite eye (physiological saline) from eye instilled with 0.05% iganidipine hydrochloride, time 0 min): 11.73 ± 2.97 /msec
- protein concentration after laser irradiation, Non-treated eye ([1]; opposite eye (physiological saline) from eye instilled with 0.05% iganidipine hydrochloride, time 30 min): 68.53 ± 14.40 /msec
- protein concentration after laser irradiation, Non-treated eye ([1]; opposite eye (physiological saline) from eye instilled with 0.05% iganidipine hydrochloride, time 60 min): 313.13 ± 27.06 /msec
- protein concentration after laser irradiation, Non-treated eye ([1]; opposite eye (physiological saline) from eye instilled with 0.1% iganidipine hydrochloride, time 0 min): 16.03 ± 2.97 /msec
- protein concentration after laser irradiation, Non-treated eye ([1]; opposite eye (physiological saline) from eye instilled with 0.1% iganidipine hydrochloride, time 30 min): 117.33 ± 31.50 /msec
- protein concentration after laser irradiation, Non-treated eye ([1]; opposite eye (physiological saline) from eye instilled with 0.1% iganidipine hydrochloride, time 60 min): 244.45 ± 39.46 /msec
- time to restore to the original intraocular pressure ([2]; eye instilled with 0.05%): 90 min
- rise of intraocular pressure from the initial value ([2]; eye instilled with 0.05%, 30 minutes from laser irradiation (FIG. 3)): 6 mmHg
- time to restore to the original intraocular pressure ([2]; eye instilled with 0.1%): 120 min
- rise of intraocular pressure from the initial value ([2]; eye instilled with 0.1%, 30 minutes from laser irradiation (FIG. 2)): 7.5 mmHg
- intraocular pressure of opposite (non-treated) eye compared with control group ([2]; eye instilled with physiological saline opposite to the test-material eye, 3 hours after irradiation): more significant decrease

SMILES: COC(=O)C1=C(C)NC(C)=C(C(=O)OCCN(C)Cc2ccccc2)C1c1cccc([N+](=O)[O-])c1 (stereo not drawn) [nicardipine hydrochloride]
- anterior chamber protein concentration compared with control group ([1]; eye instilled with 0.1%, 30 minutes after laser irradiation): without difference from the control group
- protein concentration after laser irradiation, Treated eye ([1]; instillation of 0.1% nicardipine hydrochloride 10 μl 30 minutes before laser, time 0 min): 20.55 ± 5.02 /msec
- protein concentration after laser irradiation, Treated eye ([1]; instillation of 0.1% nicardipine hydrochloride 10 μl 30 minutes before laser, time 30 min, hydrochloride): 184.1 /msec and 184.05 ± 35.1 /msec
- protein concentration after laser irradiation, Treated eye ([1]; instillation of 0.1% nicardipine hydrochloride 10 μl 30 minutes before laser, time 60 min): 337.23 ± 46.4 /msec
- protein concentration after laser irradiation ([1]; time 0 min): 15.53 ± 0.14 /msec
- protein concentration after laser irradiation ([1]; time 30 min, hydrochloride): 58.1 /msec and 58.08 ± 18.14 /msec
- protein concentration after laser irradiation ([1]; time 60 min): 30.85 ± 2.58 /msec
- protein concentration after laser irradiation, Non-treated eye ([1]; opposite eye (physiological saline) from eye instilled with 0.1% nicardipine hydrochloride, time 0 min): 11.73 ± 2.97 /msec
- protein concentration after laser irradiation, Non-treated eye ([1]; opposite eye (physiological saline) from eye instilled with 0.1% nicardipine hydrochloride, time 30 min): 118.93 ± 21.21 /msec
- protein concentration after laser irradiation, Non-treated eye ([1]; opposite eye (physiological saline) from eye instilled with 0.1% nicardipine hydrochloride, time 60 min): 349.85 ± 23.02 /msec
- effect on the rise of intraocular pressure after laser irradiation ([2]; eye instilled with 0.1% (FIG. 4)): significant inhibition of the rise of intraocular pressure
- intraocular pressure ([2]; intravenous administration group, 30 minutes after the irradiation (FIG. 1)): 24.2 mmHg
- intraocular pressure ([2]; intravenous administration group, 1 hour after the irradiation (FIG. 1)): 20.8 mmHg
- time until which the intraocular pressure effect was sustained ([2]; intravenous administration group, after the irradiation): 4 h
- decrease of intraocular pressure ([2]; intravenous administration group, at 1 hour after the irradiation versus immediately before laser irradiation): 9.3 mmHg
- intraocular pressure ([2]; intravenous administration group, immediately before laser irradiation (FIG. 1)): 30.1 mmHg
- effect on PGE2-induced inflammatory responses and temporary rise of intraocular pressure [3]: inhibits these responses in a dose-dependent manner
- effect on experimental endophthalmitis induced by argon laser photocoagulation of iris [4]: inhibited experimental endophthalmitis

SMILES: COC(=O)C1=C(C#N)NC(C)=C(C(=O)OC(C)C)C1c1cccc([N+](=O)[O-])c1 (stereo not drawn) [nilvadipine]
- effect on PGE2-induced inflammatory responses and temporary rise of intraocular pressure [3]: inhibits these responses in a dose-dependent manner
